Measured values taken from US20090202574A1, “METHODS OF IMMUNE OR HAEMATOLOGICAL ENHANCEMENT, INHIBITING TUMOUR FORMATION OR GROWTH, AND TREATING OR PREVENTING CANCER” (priority 2004, published 2009).

Key:
EL-4 target cells = test: Anti-tumour CTL and/or NK cell cytolytic activity of splenocytes against EL-4 target cells; conditions: Example 18; mice fed control diet
Procedure: Splenocytes were harvested 28 days following tumour cell injection, as specified. They were incubated at 37° C. with EL-4 target cells in graded E:T ratios in 96-well round-bottom plates. After a 4-hour incubation, 50 μl of supernatant was collected, and lysis was measured using the Cyto Tox 96 Assay Kit (Promega, Madison, Wis., USA). Background controls for non-specific target and effector cell lysis were included. After background subtraction, percentage of cell lysis was calculated using the formula: 100× (experimental-spontaneous effector-spontaneous target/maximum target-spontaneous target).

EL-4 tumours = test: EL-4 tumour growth in mice (s.c. flank tumour model); type: in vivo, C57BL/6 mice; conditions: for EL-4 tumour response: Example 18, 28 g Fe-Lf per 2.4 Kg diet, drugs i.p. at ~0.4 to 0.5 cm
[1] = tested on: Lewis lung carcinoma (LLC) tumours; test: Lewis lung carcinoma tumour growth in mice; type: in vivo, C57BL/6 mice; conditions: Example 18; 28 g Fe-Lf per 2.4 Kg diet; epirubucin 15 mg/Kg i.p.
Procedure: Tumors were established by s.c. injection of 2×10^5 EL-4 cells into the left flank of mice, and growth determined by measuring two perpendicular diameters. Animals were euthanased when tumors reached more than 1.0 cm in diameter, in accord with Animal Ethics Approval (University of Auckland). All experiments included 5 mice per treatment group, unless otherwise indicated. Paclitaxel (30 mg dissolved in 5 ml of Cremophor® EL and dehydrated alcohol) was diluted in 0.9% NaCl and administered i.p. at 30 mg/Kg. Doxorubucin in water was injected i.p. at 15 mg/Kg. The drugs were injected in a volume of 0.01 to 0.02 ml/g body weight. The expression vector encoding mouse B7-1 was prepared by cesium chloride gradient centrifugation, and diluted to 5 μg/μl in a solution of 5% glucose in 0.01% Triton X-100. It was mixed in a ratio of 1:1 (wt:wt) with DOTAP cationic liposomes (Boehringer Mannheim, Germany). Tumors were injected with 180 μl of DNA (180 μg)/liposome complexes, as described previously (Kanwar, et al., 1999 and Kanwar, et al., 2000).
Mice were fed the control diet, and the same diet supplemented with 28 g of 100% Fe-saturated lactoferrin per 2.4 Kg of diet. EL-4 (2×10^5), Lewis lung carcinoma (LLC, 2×10^5), and B16 melanoma (2×10^5) tumour cells were injected into the left flanks of C57BL/6 mice following two weeks on the Lf diets, or control diet. […]

IL-18 = IL-18 production by cultured intestinal loops; type: cell-based, mice; conditions: Example 20; 400 and 800 μg/ml; 48 h
Procedure: Cytokine levels in the supernatants of homogenates of the small intestine were determined using a “sandwich” ELISA kit (Endogen, Woburn, Mass.). They were detected within standard curve ranges of 15-375 pg/ml for IL-4, 0-2450 pg/ml for IL-5, 15-1000 pg/ml for TNF-α, 0-3000 pg/ml for IFN-γ, 37-3000 pg/ml for IL-10, 31.3-2000 pg/ml for IL-12, and 31.3-2000 pg/ml for IL-18, respectively. Quantification of nitrite, indicative of NO production, was carried out by the Griess reaction (Sigma, USA). The results are expressed as the mean nitrite concentration (μM)±SD.
100% Fe-saturated Lf, natural Lf (less than 20% iron saturated), and bovine serum albumin control were added at 400 and 800 μg/ml to intestinal loops (2.5 cm segments of the small intestine) prepared from healthy 6 to 7 week-old female mice, which were kept in culture for 48 h. IL-18 levels released by the intestinal loops, and present in the supernatants of homogenates of the small intestine were determined using a “sandwich” ELISA kit as described above.

Compound	effect of drug alone on anti-tumour cytolytic activity (EL-4 target cells)	EL-4 tumour response (EL-4 tumours)	other results
O=c1[nH]cc(F)c(=O)[nH]1 [fluorouracil, reference compound]	only slightly enhanced	–	–
CN(Cc1cnc2nc(N)nc(N)c2n1)c1ccc(C(=O)N[C@@H](CCC(=O)O)C(=O)O)cc1 [methotrexate, reference compound]	small increases	no discernible effect	–
COc1cccc2c1C(=O)c1c(O)c3c(c(O)c1C2=O)C[C@@](O)(C(=O)CO)C[C@@H]3O[C@H]1C[C@H](N)[C@@H](O)[C@H](C)O1 [Epirubucin, reference compound]	negligible effect	slight delay in the growth	LLC tumour response [1]: slight delay in the growth
O=P1(N(CCCl)CCCl)NCCCO1 (stereo not drawn) [cyclophosphamide, reference compound]	small increases	little effect	–
bovine serum albumin: control protein in intestinal loop test [reference compound]	–	–	effect on the levels of IL-18 already detectable in the intestine (IL-18): negligible effect
COc1cccc2c1C(=O)c1c(O)c3c(c(O)c1C2=O)C[C@@](O)(C(=O)CO)C[C@@H]3O[C@H]1C[C@H](N)[C@H](O)[C@H](C)O1 [doxorubicin, reference compound]	–	–	tumour response (EL-4 tumours; Example 6, doxorubicin 15 mg/Kg and/or paclitaxel 30 mg/Kg single dose i.p. at ~0.55 cm): regressed to half their size within one week of administration of doxorubicin, but then began to grow again
CC(=O)O[C@H]1C(=O)[C@@]2(C)[C@H]([C@H](OC(=O)c3ccccc3)[C@]3(O)C[C@H](OC(=O)[C@H](O)[C@@H](NC(=O)c4ccccc4)c4ccccc4)C(C)=C1C3(C)C)[C@]1(OC(C)=O)CO[C@@H]1C[C@@H]2O [paclitaxel, reference compound]	–	–	tumour response (EL-4 tumours; Example 5, paclitaxel 30 mg/Kg i.p. at 0.5 cm tumour diameter): grew completely unchecked; tumour response to paclitaxel (EL-4 tumours; Example 15, paclitaxel 30 mg/Kg i.p. at ~0.6 cm, 20 g Lf per 2.4 Kg diet): completely resistant
